Measured values reported in patent US20030109702A1, “Pyrazolyl benzyl ethers” (priority 1999, published 2003).

Test system: not listed separately
Test: physchem
Conditions: not given

chromatographic logP | SMILES
3.47 | CCc1ccccc1-n1ccc(OCc2ccccc2C(=NOC)C2=NOCCO2)n1 [Example 26]
3.97 | CON=C(C1=NOCCO1)c1ccccc1COc1ccn(Cc2ccc(C(C)(C)C)cc2)n1 [Example 33]
3 | CON=C(C1=NOCCO1)c1ccccc1COc1ccn(-c2ccc(OC)cc2)n1 [Example 39]
3.59 | CON=C(C1=NOCCO1)c1ccccc1COc1ccn(-c2cccc(Cl)c2)n1 [Example 8]
3.28 | CON=C(C1=NOCCO1)c1ccccc1COc1ccn(-c2ccc(F)cc2F)n1 [Example 19]
3.2 | CON=C(C1=NOCCO1)c1ccccc1COc1ccn(-c2ccccc2Cl)n1 [Example 9]
3.19 | CON=C(C1=NOCCO1)c1ccccc1COc1ccn(Cc2ccc(Cl)cc2)n1 [Example 36]
3.79 | CON=C(C1=NOCCO1)c1ccccc1COc1ccn(-c2cc(C)cc(C)c2)n1 [Example 30]
3.11 | CON=C(C1=NOCCO1)c1ccccc1COc1ccn(Cc2cccc(C)c2)n1 [Example 32]
3.68 | CON=C(C1=NOCCO1)c1ccccc1COc1ccn(-c2ccc(C)c(C)c2)n1 [Example 29]
3.67 | CON=C(C1=NOCCO1)c1ccccc1COc1ccn(-c2ccc(Br)cc2)n1 [Example 3]
3.52 | CON=C(C1=NOCCO1)c1ccccc1COc1ccn(-c2cc(C)ccc2C)n1 [Example 22]
2.79 | CON=C(C1=NOCCO1)c1ccccc1COc1ccn(Cc2ccccc2)n1 [Example 35]
4.08 | CON=C(C1=NOCCO1)c1ccccc1COc1ccn(-c2ccc(C(C)C)cc2)n1 [Example 16]
3.5 | CON=C(C1=NOCCO1)c1ccccc1COc1ccn(-c2ccc(C)cc2C)n1 [Example 25]
3.06 | CON=C(C1=NOCCO1)c1ccccc1COc1ccn(-c2ccccc2)n1 [Example 13]
4.02 | CON=C(C1=NOCCO1)c1ccccc1COc1ccn(-c2ccc(Cl)c(Cl)c2)n1 [Example 6]
3.15 | CON=C(C1=NOCCO1)c1ccccc1COc1ccn(-c2ccccc2C)n1 [Example 11]
3.15 | CON=C(C1=NOCCO1)c1ccccc1COc1ccn(-c2ccc(F)cc2)n1 [Example 4]
3.78 | CON=C(C1=NOCCO1)c1ccccc1COc1ccn(-c2ccc(Cl)cc2Cl)n1 [Example 14]

chromatographic logP | SMILES
3.84 | CON=C(C1=NOCCO1)c1ccccc1COc1ccn(-c2ccc(I)cc2)n1 [Example 46]
3.43 | CCOc1ccccc1-n1ccc(OCc2ccccc2C(=NOC)C2=NOCCO2)n1 [Example 43]
3.59 | CON=C(C1=NOCCO1)c1ccccc1COc1ccn(-c2cccc(Cl)c2Cl)n1 [Example 18]
4.33 | CON=C(C1=NOCCO1)c1ccccc1COc1ccn(-c2ccc(C(C)(C)C)cc2)n1 [Example 15]
3.74 | CON=C(C1=NOCCO1)c1ccccc1COc1ccn(-c2cc(Cl)ccc2Cl)n1 [Example 27]
3.19 | CON=C(C1=NOCCO1)c1ccccc1COc1ccn(-c2ccccc2F)n1 [Example 20]
3.51 | CON=C(C1=NOCCO1)c1ccccc1COc1ccn(-c2cccc3ccccc23)n1 [Example 31]
2.89 | CON=C(C1=NOCCO1)c1ccccc1COc1ccn(-c2ccc(C#N)cc2)n1 [Example 12]
3.52 | CON=C(C1=NOCCO1)c1ccccc1COc1ccn(CC2CCCCC2)n1 [Example 334]
2.87 | CON=C(C1=NOCCO1)c1ccccc1COc1ccn(-c2ccccc2OC)n1 [Example 48]
3.76 | CCc1ccc(-n2ccc(OCc3ccccc3C(=NOC)C3=NOCCO3)n2)cc1 [Example 42]
2.61 | C=CCn1ccc(OCc2ccccc2C(=NOC)C2=NOCCO2)n1 [Example 44]
4.08 | CON=C(C1=NOCCO1)c1ccccc1COc1ccn(-c2c(Cl)cccc2Cl)n1 [Example 17]
3.68 | CON=C(C1=NOCCO1)c1ccccc1COc1ccn(-c2cccc(Br)c2)n1 [Example 10]
3.68 | CON=C(C1=NOCCO1)c1ccccc1COc1ccn(-c2cccc(C)c2C)n1 [Example 28]
4.24 | CON=C(C1=NOCCO1)c1ccccc1COc1ccn(-c2cc(Cl)cc(Cl)c2)n1 [Example 7]
3.4 | CON=C(C1=NOCCO1)c1ccccc1COc1ccn(-c2ccc(C)cc2)n1 [Example 5]
3.74 | CON=C(C1=NOCCO1)c1ccccc1COc1ccn(-c2c(Cl)cc(Cl)cc2Cl)n1 [Example 24]
3.24 | CON=C(C1=NOCCO1)c1ccccc1COc1ccn(-c2cccc(F)c2)n1 [Example 21]
3.21 | CON=C(C1=NOCCO1)c1ccccc1COc1ccn(-c2ccccc2Br)n1 [Example 2]

Test system: Meloidogyne incognita
Test: Meloidogyne test
Assay type: in vivo
Conditions: lettuce in sand, concentration of active compound 20 ppm
Description: [table] To produce a suitable preparation of active compound, 1 part by weight of active compound is mixed with the stated amounts of solvent and emulsifier, and the concentrate is diluted with water to the desired concentration. Containers are filled with sand, solution of active compound, Meloidogyne incognita egg/larvae suspension and lettuce seeds. The lettuce seeds germinate and the plants develop. On the roots, galls are formed. After the desired period of time, the nematicidal action is determined in % via the formation of galls. 100% means that no galls were found; 0% means that the number of galls on the treated plants corresponds to that on the untreated control.

SMILES | kill rate (nematicidal action via the formation of galls) [%]
CON=C(C1=NOCCO1)c1ccccc1COc1ccn(-c2ccc(Cl)cc2)n1 [Example 1, [2-({[1-(4-chlorophenyl)-1H-pyrazol-3-yl]oxy}methyl)phenyl](5,6-dihydro-1,4,2-dioxazin-3-yl)methanone O-methyl oxime] | 100
CON=C(C1=NOCCO1)c1ccccc1COc1ccn(-c2ccc(C#N)cc2)n1 [Example 12] | 100

Test system: green peach aphid (Myzus persicae)
Test: Myzus test
Assay type: in vivo
Conditions: broad bean seedlings dipped, concentration of active compound 1000 ppm
Description: [table] To produce a suitable preparation of active compound, 1 part by weight of active compound is mixed with the stated amount of solvent and the stated amount of emulsifier, and the concentrate is diluted with emulsifier-containing water to the desired concentrations. Broad bean seedlings (Vicia faba) infested by the green peach aphid (Myzus persicae) are dipped into a preparation of active compound of the desired concentration and placed into a dish made of plastic. After the desired period of time, the kill in % is determined. 100% means that all of the animals have been killed; 0% means that none of the animals have been killed.

SMILES | kill rate [%]
CON=C(C1=NOCCO1)c1ccccc1COc1ccn(-c2ccc(Cl)cc2)n1 [Example 1, [2-({[1-(4-chlorophenyl)-1H-pyrazol-3-yl]oxy}methyl)phenyl](5,6-dihydro-1,4,2-dioxazin-3-yl)methanone O-methyl oxime] | 90
